Measurements taken from US11286236B2, “Compound, agent and composition for the suppression of cancer growth” (Vector Vitale IP LLC, priority 2018, dated 2022).
Structures can show the parent of a compound that is named as a salt.

Tests used:
Type in all cases: cell-based
[1] = test system: human Keratinocytes (HaCaT line); assay: Metabolic activity of human keratinocytes (HaCaT line)
Protocol: In Vitro Effects of Experimental Compound ^85Rbe-E2 on metabolic activity of human Keratinocytes
(§1) Proliferative and metabolic activity of cells was determined by the colorimetric method.
(§2) The metabolic activity of the cells (i.e., the number of living cells) was assessed by MTT staining.
(§3) 24 hours after the last reagent, the cells were seeded at a concentration of 1×10^4 cells/well in wells of a 96-well plate in complete DMEM nutrient medium with 10% FBS and 40 μg/ml gentamicin. The cells were cultured in a humidified atmosphere at 5% CO2 and 37° C. for 24 hours. After 24 hours, various doses of experimental substances were added to the respective wells. The cells were incubated at 37° C. and 5% CO2 for an additional 72 hours.
(§4) Upon completion of the incubation with the preparations, the proliferative and metabolic activity of the cells in the experiment was evaluated by the colorimetric method by staining MTT cells:
(§5) 10 μl of the MTT solution (5 mg/ml of the dye in phosphate-buffered saline) was added to each well of the plate; the plate was incubated in a CO2 incubator at 37° C. for 3 hours. After that, the medium was removed from the wells, and the formed tetraformazan crystals were dissolved in 100 μl of dimethylsulfoxide.
(§6) When MTT was used, the results were evaluated using a multi-well spectrophotometer at an excitation wavelength of 540 nm. The percentage of viable cells was calculated by the formula: IR=(A540(experiment)/A540(control))×100%.

Normal Human Fibroblasts = assay: Metabolic activity of normal human fibroblasts (MTT assay)
Protocol: In Vitro Assessment of the Effects of Experimental Compound ^85Rbe-E2 on metabolic Activity of Normal Human Fibroblasts (MTT Assay)
In Vitro Assessment of the Effects of E2+^85Rbe on Metabolic Activity of Normal Human Fibroblasts (MTT Assay)
as §1, §2, §3, §4, §5, §6

Mouse Bone Marrow Cells = assay: Cytotoxic/cytostatic effects on mouse bone marrow cells (MTT assay)
Protocol: In Vitro Assessment of Cytotoxic/Cytostatic Effects of Experimental Compound ^85Rbe-E2 on Mouse Bone Marrow Cells
as §1, §2, §3, §4, §5, §6

SMILES: Cc1ccc(S(=O)(=O)Nc2ccccc2NC(=O)c2ccccc2)cc1 [^85Rbe − E2, ^85Rb-enriched rubidium salt of N-benzoyl-N′-(4-toluenesulfonyl)-o-phenylenediamine]
- Metabolic activity of cells, % ([1]; 8 ng/ml): 114 ± 7.7%
- Metabolic activity of cells, % ([1]; 16 ng/ml): 98 ± 4%
- Metabolic activity of cells, % ([1]; 31 ng/ml): 97.8 ± 3.6%
- Metabolic activity of cells, % ([1]; 62 ng/ml): 90.7 ± 2.7%
- Metabolic activity of cells, % ([1]; 0.13 μg/ml): 95.3 ± 10.7%
- Metabolic activity of cells, % ([1]; 0.25 μg/ml): 100 ± 8.7%
- Metabolic activity of cells, % ([1]; 0.5 μg/ml): 90 ± 1%
- Metabolic activity of cells, % ([1]; 1 μg/ml): 0%
- Metabolic activity of cells, % (Normal Human Fibroblasts; 1.25 μg/ml): 105.1 ± 2.3%
- Metabolic activity of cells, % (Normal Human Fibroblasts; 2.5 μg/ml): 84.4 ± 4.6%
- Metabolic activity of cells, % (Normal Human Fibroblasts; 5 μg/ml): 82.3 ± 3^ %
- Metabolic activity of cells, % (Normal Human Fibroblasts; 10 μg/ml): 82.5 ± 1.3%
- Metabolic activity of cells, % (Normal Human Fibroblasts; 20 μg/ml): 74 ± 1.3%
- Metabolic activity of cells, % (Normal Human Fibroblasts; 38 μg/ml): 68.5 ± 1.8%
- Metabolic activity of cells, % (Normal Human Fibroblasts; 75 μg/ml): 67.4 ± 4.7%
- Metabolic activity of cells, % (Normal Human Fibroblasts; 150 μg/ml): 72.8 ± 2.1%
- Metabolic activity of cells, % (Mouse Bone Marrow Cells; 1.25 μg/ml): 119.1 ± 0.2%
- Metabolic activity of cells, % (Mouse Bone Marrow Cells; 2.5 μg/ml): 97.4 ± 1.4%
- Metabolic activity of cells, % (Mouse Bone Marrow Cells; 5 μg/ml): 90.2 ± 3.3%
- Metabolic activity of cells, % (Mouse Bone Marrow Cells; 10 μg/ml): 45 ± 4.7%
- Metabolic activity of cells, % (Mouse Bone Marrow Cells; 20 μg/ml): 24.2 ± 0.8%
- Metabolic activity of cells, % (Mouse Bone Marrow Cells; 38 μg/ml): 19.1 ± 1.9%
- Metabolic activity of cells, % (Mouse Bone Marrow Cells; 75 μg/ml): 18.5 ± 0.4%
- Metabolic activity of cells, % (Mouse Bone Marrow Cells; 150 μg/ml): 0%
